Marks after values point to notes of the source that are not given here.
Experiments:
PEDV [1] = assay: Enteric clinical observation scoring (diarrhea, depression, gauntness) of nursery pigs challenged with PEDV; type: in vivo, pig; set-up: Depression score, Severity: scale not given here; settings: for Depression score, Severity / Diarrhea score, Severity / Gauntness score, Severity: average of worst score of each pig over 14-d period; for Depression score, Incidence / Diarrhea score, Incidence / Gauntness score, Incidence: pigs affected/pigs; for Gauntness score, Mean of Day 0 to 14: score 0-2; for Depression score, Mean of Day 0 to 14: score 0-3; for Diarrhea score, Mean of Day 0 to 14: score 1-4
Procedure: (§1) The seventy-five piglets were randomly assigned to one of three treatment groups: control (no ionophore), narasin (30 mg/kg) and narasin (60 mg/kg). They acclimatized to their environment and were fed daily for seven days prior to exposure with PEDV on Day 0. Treatment continued for 14 days following challenge. Pigs from the three treatment groups were administered orally with 4×10^4 TCID50/mL of the PEDV isolate PEDV/USA/NC/2013/49469 (College of Veterinary Medicine, Iowa State University). The piglets were monitored daily for changes in clinical parameters, clinical score for diarrhea, depression and gauntness, rate of food consumption, and rate of body weight change and viral swabs were taken daily to determine viral shedding.
Incidence and severity of the score data (diarrhea, depression, and gauntness) were summarized by frequencies and mean scores on a daily basis.
Table 2 indicates the scoring system used to measure diarrhea, depression, and gauntness. Table 3 compares the mean scores for diarrhea, depression and gauntness in nursery pigs whose diet included 0, 30 or 60 mg/kg narasin.

PEDV [2] = assay: Viral shedding of PEDV in fecal swabs by real-time RT-PCR; type: in vivo, pig; settings: for Viral shedding: only pigs positive for shedding
Procedure: as §1
(§2) Viral shedding values was evaluated by RMANOVA and the PROC MIXED procedure of SAS (SAS, Cary, N.C.). Other variables for analysis included growth performance data (average daily gain, or ADG; average daily feed intake, or ADFI; and feed efficiency (unit of weight gain per unit of feed consumed), or G:F), incidence and severity of diarrhea, depression, and gauntness scores, and intestinal histology score and immunohistochemistry. The analysis of the growth performance outcomes were conducted using a generalized linear mixed model and the PROC MIXED procedure of SAS.
The effects of narasin levels (0, 30, 60 mg/kg) on within-day viral shedding of nursery pigs (Table 4) and percentage of nursery pigs shedding PEDV (Table 5) are compared. Fecal swabs were collected from all pigs on test daily from Day 0 to 14 of study. Each sample was labeled with pig identification, pen number, and sample day. All samples were frozen at the time of collection and stored until required for analysis. Only fecal swab samples collected from days 0, 1, 2, 3, 4, 5, 6, 7, 8, 9, and 14 were sent for analysis. Fecal swab samples were sent to the Iowa State Veterinary Diagnostic Laboratory (ISVDL) and were analyzed using real-time RT-PCR to determine viral shedding of PEDV.

PEDV [3] = assay: Intestinal histology score and immunohistochemistry of PEDV-challenged nursery pigs; type: in vivo, pig; settings: not significant (P>0.05)
Procedure: as §2
The effects of narasin inclusion level on the intestinal histology score and immunohistochemistry were analyzed. As narasin level increased from 0, 30, 60 mg/kg), histology scores decreased from 2 to 0 while the immunohistochemistry score decreased only at the 60 mg/kg level (from 3 to 2) although differences were not significant (P>0.05).

[4] = system: flavivirus responsible for dengue fever; settings: added to cultured human cells infected with the virus (Low, et al. 2011); cited from earlier work
nursery pigs = settings: about 83 mg/kg feed, at least in the presence of tiamulin; cited from earlier work

CC[C@@H](C(=O)O)[C@@H]1O[C@@H]([C@@H](C)[C@H](O)[C@H](C)C(=O)[C@H](CC)[C@H]2O[C@]3(C=C[C@@H](O)[C@]4(CC[C@@](C)([C@H]5CC[C@](O)(CC)[C@H](C)O5)O4)O3)[C@H](C)C[C@@H]2C)[C@@H](C)C[C@@H]1C [narasin]
effect of narasin level on mean or severity of gauntness scores (PEDV [1]; 0, 30, 60 mg/kg feed, 14-d period): little effect
incidence of depression, animals (PEDV [1]; 30 mg/kg feed, 14-d period): 4 animals
Depression score, Severity (PEDV [1]; 30 mg/kg feed): 0.16
Diarrhea score, Severity (PEDV [1]; 30 mg/kg feed): 2.72
Gauntness score, Severity (PEDV [1]; 30 mg/kg feed): 0.68
Depression score, Incidence (PEDV [1]; 30 mg/kg feed): 4/25
Diarrhea score, Incidence (PEDV [1]; 30 mg/kg feed): 19/25
Gauntness score, Incidence (PEDV [1]; 30 mg/kg feed): 14/25
Gauntness score, Mean of Day 0 to 14 (PEDV [1]; 30 mg/kg feed): 0.14
Depression score, Mean of Day 0 to 14 (PEDV [1]; 30 mg/kg feed): 0.03
Diarrhea score, Mean of Day 0 to 14 (PEDV [1]; 30 mg/kg feed): 1.45
incidence of depression, animals (PEDV [1]; 60 mg/kg feed, 14-d period): 3 animals
Depression score, Severity (PEDV [1]; 60 mg/kg feed): 0.12
Diarrhea score, Severity (PEDV [1]; 60 mg/kg feed): 2.48
Gauntness score, Severity (PEDV [1]; 60 mg/kg feed): 0.52
Depression score, Incidence (PEDV [1]; 60 mg/kg feed): 3/25
Diarrhea score, Incidence (PEDV [1]; 60 mg/kg feed): 19/25
Gauntness score, Incidence (PEDV [1]; 60 mg/kg feed): 11/25
Gauntness score, Mean of Day 0 to 14 (PEDV [1]; 60 mg/kg feed): 0.14
Depression score, Mean of Day 0 to 14 (PEDV [1]; 60 mg/kg feed): 0.02
Diarrhea score, Mean of Day 0 to 14 (PEDV [1]; 60 mg/kg feed): 1.37
duration of shedding (PEDV [2]; 0, 30, 60 mg/kg feed): generally decreased as narasin level increased
effect of narasin level on the percentage of pigs shedding PEDV (PEDV [2]; 0, 30, 60 mg/kg feed, P>0.10): no effect
viral shedding compared to the control (PEDV [2]; 30 mg/kg feed): lower (P<0.10) viral shedding on Day 2 and Day 3
Viral shedding (PEDV [2]; 30 mg/kg feed, Day 0): 0 cells/mL
Viral shedding (PEDV [2]; 30 mg/kg feed, Day 1): 1 cells/mL
Viral shedding (PEDV [2]; 30 mg/kg feed, Day 2): 1,005* cells/mL
Viral shedding (PEDV [2]; 30 mg/kg feed, Day 3): 152,889* cells/mL
Viral shedding (PEDV [2]; 30 mg/kg feed, Day 4): 7,543,717 cells/mL
Viral shedding (PEDV [2]; 30 mg/kg feed, Day 5): 108,303,640 cells/mL
Viral shedding (PEDV [2]; 30 mg/kg feed, Day 6): 879,972,048 cells/mL
Viral shedding (PEDV [2]; 30 mg/kg feed, Day 7): 1,422,120,182 cells/mL
Viral shedding (PEDV [2]; 30 mg/kg feed, Day 8): 268,967,479 cells/mL
Viral shedding (PEDV [2]; 30 mg/kg feed, Day 9): 63,817,042 cells/mL
Viral shedding (PEDV [2]; 30 mg/kg feed, Day 14): 2,256 cells/mL
viral shedding compared to the control (PEDV [2]; 60 mg/kg feed): lower (P<0.10) viral shedding on Day 2, 3, 4, 5, and 6
Viral shedding (PEDV [2]; 60 mg/kg feed, Day 0): 0 cells/mL
Viral shedding (PEDV [2]; 60 mg/kg feed, Day 1): 0 cells/mL
Viral shedding (PEDV [2]; 60 mg/kg feed, Day 2): 1* cells/mL
Viral shedding (PEDV [2]; 60 mg/kg feed, Day 3): 4,085* cells/mL
Viral shedding (PEDV [2]; 60 mg/kg feed, Day 4): 18,980* cells/mL
Viral shedding (PEDV [2]; 60 mg/kg feed, Day 5): 593,842* cells/mL
Viral shedding (PEDV [2]; 60 mg/kg feed, Day 6): 5,551,647* cells/mL
Viral shedding (PEDV [2]; 60 mg/kg feed, Day 7): 171,586,154 cells/mL
Viral shedding (PEDV [2]; 60 mg/kg feed, Day 8): 58,813,444 cells/mL
Viral shedding (PEDV [2]; 60 mg/kg feed, Day 9): 16,189,481 cells/mL
Viral shedding (PEDV [2]; 60 mg/kg feed, Day 14): 9,262 cells/mL
immunohistochemistry score (PEDV [3]; 60 mg/kg feed, decreased from 3): 2
intestinal histology score (PEDV [3]; narasin level increased 0, 30, 60 mg/kg: decreased from 2 to 0): 0
replication of dengue flavivirus [4]: block replication
toxicity to nursery pigs (nursery pigs): toxic
